Results reported in patent US7256192B2, “Aromatic diamide derivatives, chemicals for agricultural or horticultural use and usage thereof” (Nihon Nohyaku Co., Ltd., priority 1999, dated 2007).

Tested on: common cutworm (Spodoptera litura)
Experiment: Insecticidal effect on common cutworm (Test Example 2)
Assay type: in vivo
Settings: 50 ppm; cabbage leaf immersed about 30 seconds; second-instar larvae; eight days after the inoculation; 25° C.
From the text: Insecticidal effect on common cutworm (Spodoptera litura)
A piece of cabbage leaf (cultivar: Shikidori) was immersed for about 30 seconds in a liquid chemical prepared by diluting a preparation containing each compound listed in Table 1 or Table 2, as an active ingredient to adjust the concentration to 50 ppm. After air-drying, the piece was placed in a plastic Petri dish with a diameter of 9 cm and inoculated with second-instar larvae of common cutworm, after which the dish was closed and then allowed to stand in a room thermostated at 25° C. Eight days after the inoculation, the dead and alive were counted and the mortality was calculated according to the following equation, whereby the insecticidal effect was judged according to the criterion shown in Test Example 1. The test was carried out with three replications of 10 insects.

SMILES	insecticidal activity (mortality rating)
CCN(CC)C(=O)OCC(C)NC(=O)c1c(I)cccc1C(=O)Nc1ccc(C(F)(C(F)(F)F)C(F)(F)F)nc1C (racemic) [2-32]	B or higher
CCNC(=O)OCC(C)NC(=O)c1c(I)cccc1C(=O)Nc1ccc(C(F)(C(F)(F)F)C(F)(F)F)nc1Cl (racemic) [2-39]	B or higher
CCNC(=O)OCC(C)NC(=O)c1c(I)cccc1C(=O)Nc1ccc(OC(C(F)(F)F)C(F)(F)F)nc1C (racemic) [2-47]	B or higher
COc1ccc(CNC(=O)OCC(C)NC(=O)c2c(I)cccc2C(=O)Nc2ccc(OC(C(F)(F)F)C(F)(F)F)nc2C)cc1 (racemic) [2-72]	B or higher
CNC(=O)OCC(C)(C)NC(=O)c1c(I)cccc1C(=O)Nc1ccc(C(F)(C(F)(F)F)C(F)(F)F)nc1C [2-35]	B or higher
CCOC(=O)NCC(C)(C)NC(=O)c1c(I)cccc1C(=O)Nc1ccc(C(F)(F)C(F)(F)F)cc1C [compound 19]	B or higher
COC(=O)NCC(C)NC(=O)c1c(I)cccc1C(=O)Nc1ccc(C(F)(C(F)(F)F)C(F)(F)F)cc1C (stereo not shown) [compound 22]	B or higher
CC(=O)NCC(C)(C)NC(=O)c1c(I)cccc1C(=O)Nc1ccc(C(F)(C(F)(F)F)C(F)(F)F)cc1C [compound 28]	B or higher
Cc1cc(C(F)(C(F)(F)F)C(F)(F)F)ccc1NC(=O)c1cccc(I)c1C(=O)NC(C)(C)CNC(=O)C1CC1 [compound 29]	B or higher
Cc1cc(C(F)(C(F)(F)F)C(F)(F)F)ccc1NC(=O)c1cccc(I)c1C(=O)NCC1COC(C)(C)O1 (stereo not shown) [compound 51]	B or higher
COCCC(C)NC(=O)c1c(I)cccc1C(=O)Nc1ccc(C(F)(C(F)(F)F)C(F)(F)F)cc1C (stereo not shown) [compound 59]	B or higher
Cc1cc(C(F)(C(F)(F)F)C(F)(F)F)ccc1NC(=O)c1cccc(I)c1C(=O)NC(C)CCOCC(C)C (stereo not shown) [compound 74]	B or higher
Cc1cc(C(F)(C(F)(F)F)C(F)(F)F)ccc1NC(=O)c1cccc(I)c1C(=O)NC(C)COC(=O)N(C)C (stereo not shown) [compound 88]	B or higher
CCCNC(=O)OCC(C)(C)NC(=O)c1c(I)cccc1C(=O)Nc1ccc(C(F)(C(F)(F)F)C(F)(F)F)cc1C [compound 129]	B or higher
CCCNC(=O)OCC(C)(C)NC(=O)c1c(I)cccc1C(=O)Nc1ccc(C(F)(C(F)(F)F)C(F)(F)F)cc1Cl [compound 130]	B or higher
Cc1cc(C(F)(C(F)(F)F)C(F)(F)F)ccc1NC(=O)c1cccc(I)c1C(=O)NC(C)COC(=O)NC1CC1 (stereo not shown) [compound 133]	B or higher
Cc1cc(OC(F)(F)F)ccc1NC(=O)c1cccc(I)c1C(=O)NC(C)COC(=O)NC1CC1 (stereo not shown) [compound 134]	B or higher
COCCNC(=O)OCC(C)(C)NC(=O)c1c(I)cccc1C(=O)Nc1ccc(C(F)(C(F)(F)F)C(F)(F)F)cc1C [compound 172]	B or higher
CSCCCNC(=O)OCC(C)(C)NC(=O)c1c(I)cccc1C(=O)Nc1ccc(C(F)(C(F)(F)F)C(F)(F)F)cc1C [compound 184]	B or higher
Cc1cc(C(F)(C(F)(F)F)C(F)(F)F)ccc1NC(=O)c1ccc(Cl)c(Cl)c1C(=O)NC(C)COC(=O)NCc1ccccc1 (stereo not shown) [compound 229]	B or higher
CCNC(=O)OCC(C)NC(=O)c1c(I)cccc1C(=O)Nc1ccc(C(F)(F)C(F)(F)C(F)(F)F)cc1C (stereo not shown) [compound 272]	B or higher
CCNC(=O)OCC(C)NC(=O)c1c(I)cccc1C(=O)Nc1ccc(C(OCC)(C(F)(F)F)C(F)(F)F)cc1C (stereo not shown) [compound 279]	B or higher
